Test system: U937 chronic human histiocytic leukemia cells or K562 human chronic myeloid leukemia cells
Test: MTT assay of the 27 member PBD library synthesised on crowns (photolytic cleavage, continuous incubation)
Type: cell-based
Details: 4 days, with or without UVA (365 nm, 2 h) not given
Description: The ability of agents to inhibit the growth of U937 chronic human histiocytic leukemia cells or K562 human chronic myeloid leukemia cells in culture was measured using the MTT assay (Mosmann, 1983). This is based on the ability of viable cells to reduce a yellow soluble tetrazolium salt, 3-(4,5-dimethylthiazolyl)-2,5-diphenyltetrazolium bromide (MTT; Sigma Chemical Co.), to an insoluble purple formazan precipitate. Following drug treatment, the cells were transferred to 96-well microtitre plates with 10^4 cells per well and 8 wells per sample. The plates were incubated at 37° C. in a humidified atmosphere containing 5% CO2. Following incubation of the plates for 4 days (to allow control cells to increase in number by 10-fold), 20 μL of a 5 mg/mL solution of MTT in phosphate-buffered saline was added to each well and the plates incubated further for 5 hours. […] The optical density was then read at a wavelength of 550 nm on a Titertek Multiscan ELISA plate reader and the dose-response curve constructed. […]
Following incubation of the plates for 4 days (to allow control cells to increase in number by 10-fold), 20 μL of a 5 mg/mL solution of MTT in phosphate-buffered saline was added to each well and the plates further incubated for 5 hours. […] The optical density was then read at a wavelength of 550 nm on a Titertek Multiscan ELISA plate reader and the dose-response curve constructed.

**Q.** `COc1cc2c(cc1OCc1ccccc1)N=C[C@@H]1CCCN1C2=O` [Benzyl DC-81, reference compound] was tested. Which “% Control at 0.3 μM” value did it give?
**A.** 47.4%
